Tests used:
[1] = molecular target: T1, Dual specificity mitogen-activated protein kinase kinase 4 (Homo sapiens) (UniProt P45985); assay: Inhibition of MEK4 (unknown origin) assessed as residual activity at 1000 nM by KINOMEscan analysis relative to control
T1 sequence (whole entry): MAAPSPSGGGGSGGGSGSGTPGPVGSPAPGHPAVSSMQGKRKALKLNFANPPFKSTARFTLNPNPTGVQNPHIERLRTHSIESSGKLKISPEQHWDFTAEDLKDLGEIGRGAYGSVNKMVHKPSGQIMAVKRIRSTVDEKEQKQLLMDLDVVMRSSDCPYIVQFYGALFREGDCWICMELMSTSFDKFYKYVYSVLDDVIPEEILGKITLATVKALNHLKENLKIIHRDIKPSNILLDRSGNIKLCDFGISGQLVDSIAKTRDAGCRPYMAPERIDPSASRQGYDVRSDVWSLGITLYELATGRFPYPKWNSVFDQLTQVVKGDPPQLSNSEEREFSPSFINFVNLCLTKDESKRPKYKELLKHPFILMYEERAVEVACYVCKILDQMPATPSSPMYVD

[2] = molecular target: Serine/threonine-protein kinase pim-3 (Homo sapiens) (UniProt Q86V86); assay: Inhibition of PIM3 (unknown origin) assessed as residual activity at 1000 nM by KINOMEscan analysis relative to control
[3] = molecular target: Atypical kinase COQ8A, mitochondrial (Homo sapiens) (UniProt Q8NI60); assay: Inhibition of ADCK3 (unknown origin) assessed as residual activity at 1000 nM by KINOMEscan analysis relative to control
Sequence of Atypical kinase COQ8A, mitochondrial (Homo sapiens) (Q8NI60 163-647 limits assumed): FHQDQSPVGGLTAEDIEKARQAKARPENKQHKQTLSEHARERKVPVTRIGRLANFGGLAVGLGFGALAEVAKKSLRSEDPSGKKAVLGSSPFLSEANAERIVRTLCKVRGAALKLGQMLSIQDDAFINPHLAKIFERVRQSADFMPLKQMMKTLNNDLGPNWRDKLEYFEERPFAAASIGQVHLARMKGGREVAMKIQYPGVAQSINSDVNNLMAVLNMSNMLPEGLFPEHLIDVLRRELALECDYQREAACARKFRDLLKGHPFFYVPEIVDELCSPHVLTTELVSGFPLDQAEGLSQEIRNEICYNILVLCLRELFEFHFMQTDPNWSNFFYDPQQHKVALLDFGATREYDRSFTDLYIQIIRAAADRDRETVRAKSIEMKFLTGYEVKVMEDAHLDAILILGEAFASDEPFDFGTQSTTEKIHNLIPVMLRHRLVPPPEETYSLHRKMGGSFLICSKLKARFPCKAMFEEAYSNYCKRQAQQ

[4] = molecular target: Mitogen-activated protein kinase kinase kinase 4 (Homo sapiens) (UniProt Q9Y6R4); assay: Inhibition of MAP3K4 (unknown origin) assessed as residual activity at 1000 nM by KINOMEscan analysis relative to control
Sequence of Mitogen-activated protein kinase kinase kinase 4 (Homo sapiens) (Q9Y6R4 whole entry): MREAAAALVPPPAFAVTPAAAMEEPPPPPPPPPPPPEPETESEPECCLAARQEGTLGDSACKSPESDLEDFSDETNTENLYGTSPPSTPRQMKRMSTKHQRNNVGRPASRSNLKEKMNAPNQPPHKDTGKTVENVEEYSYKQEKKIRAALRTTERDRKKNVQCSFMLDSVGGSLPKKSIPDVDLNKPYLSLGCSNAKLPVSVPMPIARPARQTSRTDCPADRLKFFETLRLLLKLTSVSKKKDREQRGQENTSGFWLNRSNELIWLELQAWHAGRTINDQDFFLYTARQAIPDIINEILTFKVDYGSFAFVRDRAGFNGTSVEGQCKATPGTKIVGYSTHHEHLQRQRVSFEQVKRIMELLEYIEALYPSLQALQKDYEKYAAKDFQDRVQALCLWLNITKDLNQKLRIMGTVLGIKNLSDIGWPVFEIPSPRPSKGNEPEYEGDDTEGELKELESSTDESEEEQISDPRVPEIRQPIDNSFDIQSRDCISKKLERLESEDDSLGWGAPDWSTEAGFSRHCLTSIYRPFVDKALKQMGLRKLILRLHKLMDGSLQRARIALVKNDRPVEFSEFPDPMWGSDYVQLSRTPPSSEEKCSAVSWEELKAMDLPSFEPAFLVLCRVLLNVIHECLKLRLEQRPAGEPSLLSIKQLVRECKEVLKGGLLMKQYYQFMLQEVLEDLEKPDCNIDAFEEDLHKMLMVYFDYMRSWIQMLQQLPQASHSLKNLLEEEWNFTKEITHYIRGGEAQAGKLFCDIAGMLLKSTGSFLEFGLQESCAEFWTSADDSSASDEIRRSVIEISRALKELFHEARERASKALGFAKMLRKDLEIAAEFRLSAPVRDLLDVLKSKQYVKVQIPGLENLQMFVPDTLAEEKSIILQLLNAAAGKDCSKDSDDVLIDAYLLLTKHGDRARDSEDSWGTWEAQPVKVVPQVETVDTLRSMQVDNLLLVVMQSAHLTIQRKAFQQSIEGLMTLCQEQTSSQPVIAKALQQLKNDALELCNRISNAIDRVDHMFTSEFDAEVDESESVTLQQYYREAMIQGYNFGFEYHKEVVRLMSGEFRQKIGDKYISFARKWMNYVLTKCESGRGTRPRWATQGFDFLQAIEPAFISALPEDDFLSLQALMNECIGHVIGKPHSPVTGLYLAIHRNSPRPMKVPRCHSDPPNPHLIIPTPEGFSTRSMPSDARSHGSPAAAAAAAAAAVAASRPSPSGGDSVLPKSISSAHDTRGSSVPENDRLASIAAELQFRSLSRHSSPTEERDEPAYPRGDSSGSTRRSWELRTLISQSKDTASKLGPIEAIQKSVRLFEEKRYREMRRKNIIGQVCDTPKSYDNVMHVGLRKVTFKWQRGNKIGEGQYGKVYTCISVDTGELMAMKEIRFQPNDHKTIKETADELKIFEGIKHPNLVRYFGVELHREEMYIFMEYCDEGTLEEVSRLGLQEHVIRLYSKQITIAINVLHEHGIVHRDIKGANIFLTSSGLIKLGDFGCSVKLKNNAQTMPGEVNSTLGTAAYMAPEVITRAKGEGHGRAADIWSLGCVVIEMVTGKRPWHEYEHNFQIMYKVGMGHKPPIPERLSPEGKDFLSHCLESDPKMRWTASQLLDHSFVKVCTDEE

[5] = molecular target: SRSF protein kinase 1 (Homo sapiens) (UniProt Q96SB4); assay: Inhibition of SRPK1 (unknown origin) assessed as residual activity at 1000 nM by KINOMEscan analysis relative to control
Sequence of SRSF protein kinase 1 (Homo sapiens) (Q96SB4 whole entry): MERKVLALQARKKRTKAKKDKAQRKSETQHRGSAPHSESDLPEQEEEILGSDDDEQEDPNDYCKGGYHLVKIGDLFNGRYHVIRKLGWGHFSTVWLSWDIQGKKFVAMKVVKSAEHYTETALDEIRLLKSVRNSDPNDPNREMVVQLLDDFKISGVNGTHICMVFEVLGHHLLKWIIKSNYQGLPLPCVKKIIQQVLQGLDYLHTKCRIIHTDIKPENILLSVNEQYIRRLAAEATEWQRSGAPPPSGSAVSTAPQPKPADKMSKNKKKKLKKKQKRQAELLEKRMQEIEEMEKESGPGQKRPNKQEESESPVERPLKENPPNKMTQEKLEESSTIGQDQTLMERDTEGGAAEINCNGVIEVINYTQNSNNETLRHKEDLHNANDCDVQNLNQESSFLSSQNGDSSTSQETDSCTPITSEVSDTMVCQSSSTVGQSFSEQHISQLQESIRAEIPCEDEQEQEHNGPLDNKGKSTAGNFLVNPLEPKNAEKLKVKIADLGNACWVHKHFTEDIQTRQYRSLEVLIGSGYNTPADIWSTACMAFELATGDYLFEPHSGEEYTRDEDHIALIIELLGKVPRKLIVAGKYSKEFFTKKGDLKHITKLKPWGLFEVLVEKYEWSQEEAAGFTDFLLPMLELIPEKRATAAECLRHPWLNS

[6] = molecular target: Mitogen-activated protein kinase kinase kinase kinase 5 (Homo sapiens) (UniProt Q9Y4K4); assay: Inhibition of MAP4K5 (unknown origin) assessed as residual activity at 1000 nM by KINOMEscan analysis relative to control
Sequence of Mitogen-activated protein kinase kinase kinase kinase 5 (Homo sapiens) (Q9Y4K4 whole entry, looked up, the tested form may be a part): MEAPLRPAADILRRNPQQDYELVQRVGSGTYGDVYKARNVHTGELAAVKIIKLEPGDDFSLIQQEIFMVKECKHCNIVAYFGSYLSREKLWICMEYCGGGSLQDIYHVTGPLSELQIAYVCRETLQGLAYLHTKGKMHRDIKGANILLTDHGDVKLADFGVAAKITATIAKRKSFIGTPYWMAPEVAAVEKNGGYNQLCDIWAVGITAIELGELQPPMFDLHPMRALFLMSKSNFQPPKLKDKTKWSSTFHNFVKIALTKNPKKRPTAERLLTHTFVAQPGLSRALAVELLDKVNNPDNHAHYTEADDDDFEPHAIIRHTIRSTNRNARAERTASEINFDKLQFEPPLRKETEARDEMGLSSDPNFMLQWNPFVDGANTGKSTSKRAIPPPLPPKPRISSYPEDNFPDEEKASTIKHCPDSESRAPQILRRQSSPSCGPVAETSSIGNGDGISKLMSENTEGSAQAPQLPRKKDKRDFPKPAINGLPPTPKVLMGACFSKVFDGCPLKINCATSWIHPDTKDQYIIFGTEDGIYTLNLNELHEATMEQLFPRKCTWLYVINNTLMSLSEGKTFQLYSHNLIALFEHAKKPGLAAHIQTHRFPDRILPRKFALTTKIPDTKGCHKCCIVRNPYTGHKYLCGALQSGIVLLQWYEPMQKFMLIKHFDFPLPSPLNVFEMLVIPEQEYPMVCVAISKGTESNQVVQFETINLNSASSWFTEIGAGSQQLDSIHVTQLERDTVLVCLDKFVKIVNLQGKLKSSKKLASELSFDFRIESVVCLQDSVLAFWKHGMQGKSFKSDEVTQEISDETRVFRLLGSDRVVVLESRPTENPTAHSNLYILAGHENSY

[7] = molecular target: Ribosomal protein S6 kinase alpha-1 (Homo sapiens) (UniProt Q15418); assay: Inhibition of C-terminal RSK1 kinetic domain 2 (unknown origin) assessed as residual activity at 1000 nM by KINOMEscan analysis relative to control
Sequence of Ribosomal protein S6 kinase alpha-1 (Homo sapiens) (Q15418 whole entry, the tested form may be a part): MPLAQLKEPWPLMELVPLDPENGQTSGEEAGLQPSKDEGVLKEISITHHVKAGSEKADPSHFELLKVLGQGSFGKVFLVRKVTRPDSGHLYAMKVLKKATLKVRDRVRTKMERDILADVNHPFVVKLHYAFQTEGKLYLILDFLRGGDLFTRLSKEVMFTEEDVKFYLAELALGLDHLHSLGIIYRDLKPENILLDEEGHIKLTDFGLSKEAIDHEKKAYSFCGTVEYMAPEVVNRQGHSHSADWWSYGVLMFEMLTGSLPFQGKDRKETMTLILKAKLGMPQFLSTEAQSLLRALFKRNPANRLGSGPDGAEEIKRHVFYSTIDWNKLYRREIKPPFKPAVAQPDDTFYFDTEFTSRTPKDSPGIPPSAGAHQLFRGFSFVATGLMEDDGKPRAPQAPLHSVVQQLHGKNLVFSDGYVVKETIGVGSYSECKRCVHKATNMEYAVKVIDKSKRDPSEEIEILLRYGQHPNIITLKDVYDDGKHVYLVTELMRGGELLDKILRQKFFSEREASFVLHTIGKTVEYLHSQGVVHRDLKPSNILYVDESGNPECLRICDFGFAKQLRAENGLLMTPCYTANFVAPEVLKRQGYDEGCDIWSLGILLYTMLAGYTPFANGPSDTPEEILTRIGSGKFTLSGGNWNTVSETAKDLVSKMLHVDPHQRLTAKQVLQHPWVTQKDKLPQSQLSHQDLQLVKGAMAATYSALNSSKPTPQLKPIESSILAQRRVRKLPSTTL

[8] = molecular target: T2, Serine/threonine-protein kinase TAO3 (Homo sapiens) (UniProt Q9H2K8); assay: Inhibition of TAOK3 (unknown origin) assessed as residual activity at 1000 nM by KINOMEscan analysis relative to control
T2 sequence (whole entry): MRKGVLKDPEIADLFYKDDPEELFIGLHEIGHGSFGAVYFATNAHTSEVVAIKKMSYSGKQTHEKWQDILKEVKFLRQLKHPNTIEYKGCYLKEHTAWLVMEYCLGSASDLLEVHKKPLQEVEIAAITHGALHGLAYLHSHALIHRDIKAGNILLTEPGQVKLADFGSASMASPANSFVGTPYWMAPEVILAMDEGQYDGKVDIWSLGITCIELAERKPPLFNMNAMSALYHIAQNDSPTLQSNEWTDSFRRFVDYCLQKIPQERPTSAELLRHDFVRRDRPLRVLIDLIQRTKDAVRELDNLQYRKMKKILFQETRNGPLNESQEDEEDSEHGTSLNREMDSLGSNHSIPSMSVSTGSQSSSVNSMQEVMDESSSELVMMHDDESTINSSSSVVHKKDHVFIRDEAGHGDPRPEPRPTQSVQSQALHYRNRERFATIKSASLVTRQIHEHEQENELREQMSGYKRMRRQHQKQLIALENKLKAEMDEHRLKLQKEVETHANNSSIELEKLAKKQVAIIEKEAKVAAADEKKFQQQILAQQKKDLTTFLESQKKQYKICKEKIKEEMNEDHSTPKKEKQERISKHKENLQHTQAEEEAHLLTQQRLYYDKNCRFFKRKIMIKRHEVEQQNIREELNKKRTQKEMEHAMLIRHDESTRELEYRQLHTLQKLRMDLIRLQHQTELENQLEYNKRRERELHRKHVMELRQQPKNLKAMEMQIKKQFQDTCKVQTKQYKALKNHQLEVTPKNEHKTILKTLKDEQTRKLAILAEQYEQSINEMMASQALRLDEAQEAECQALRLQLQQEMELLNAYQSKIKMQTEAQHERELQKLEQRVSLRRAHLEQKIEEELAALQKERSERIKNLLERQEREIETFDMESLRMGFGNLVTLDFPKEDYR

[9] = molecular target: T3, Ephrin type-B receptor 6 (Homo sapiens) (UniProt O15197); assay: Inhibition of EPHB6 (unknown origin) assessed as residual activity at 1000 nM by KINOMEscan analysis relative to control
T3 sequence (whole entry): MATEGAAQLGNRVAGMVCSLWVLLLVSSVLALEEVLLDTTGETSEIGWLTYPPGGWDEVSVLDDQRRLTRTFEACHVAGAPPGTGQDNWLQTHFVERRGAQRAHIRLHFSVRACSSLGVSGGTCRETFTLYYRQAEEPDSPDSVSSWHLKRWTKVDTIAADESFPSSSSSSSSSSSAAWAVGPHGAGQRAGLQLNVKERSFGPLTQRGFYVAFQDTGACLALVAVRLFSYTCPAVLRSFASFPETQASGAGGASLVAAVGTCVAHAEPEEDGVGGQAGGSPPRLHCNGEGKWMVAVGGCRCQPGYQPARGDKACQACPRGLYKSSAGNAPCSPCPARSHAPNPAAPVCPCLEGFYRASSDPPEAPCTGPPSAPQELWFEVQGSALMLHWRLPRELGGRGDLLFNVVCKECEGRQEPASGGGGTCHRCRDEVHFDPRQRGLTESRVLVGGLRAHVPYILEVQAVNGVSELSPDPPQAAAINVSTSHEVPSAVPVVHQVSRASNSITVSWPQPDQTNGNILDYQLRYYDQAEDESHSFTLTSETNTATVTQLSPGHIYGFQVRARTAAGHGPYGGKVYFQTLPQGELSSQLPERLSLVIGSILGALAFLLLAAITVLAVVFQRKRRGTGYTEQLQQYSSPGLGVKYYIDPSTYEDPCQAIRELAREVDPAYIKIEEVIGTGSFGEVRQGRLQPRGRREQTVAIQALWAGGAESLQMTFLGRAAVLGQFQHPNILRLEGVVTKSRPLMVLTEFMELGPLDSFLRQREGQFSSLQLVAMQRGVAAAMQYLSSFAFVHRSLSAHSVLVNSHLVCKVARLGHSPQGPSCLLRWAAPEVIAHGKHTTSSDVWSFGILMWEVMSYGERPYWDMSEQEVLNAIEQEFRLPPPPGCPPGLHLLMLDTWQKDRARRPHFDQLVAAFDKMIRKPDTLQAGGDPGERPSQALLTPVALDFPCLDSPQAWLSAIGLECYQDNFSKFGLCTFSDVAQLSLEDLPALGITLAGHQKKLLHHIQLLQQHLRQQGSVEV

SMILES	Activity [1] [%]	Activity [2] [%]	Activity [3] [%]	Activity [4] [%]	Activity [5] [%]	Activity [6] [%]	Activity [7] [%]	Activity [8] [%]	Activity [9] [%]
COc1cc2nc(C)nc(N[C@H](C)c3cccc(-c4cn[nH]c4)c3)c2cc1OC	100	90	98	50	77	96	99	100	100
COc1cc2ncnc(N[C@H](C)c3cccc4ccccc34)c2cc1OC	97	100	94	96	98	100	100	79	73

Source: ChEMBL document CHEMBL5678818, “Discovery of potent SOS1 inhibitors that block RAS activation via disruption of the RAS-SOS1 interaction” (Proc Natl Acad Sci U S A, 2019)
